Nine compounds from patent publication US20260217767A1, “NOVEL A4B7 THIOETHER PEPTIDE DIMER ANTAGONISTS” (Protagonist Therapeutics, Inc., priority 2014, published 2026) can be followed below.

The test has as its target T1, RPMI 8866 cells (Homo sapiens, UniProt P13612+P26010).
T1 sequence (P13612 34-1032): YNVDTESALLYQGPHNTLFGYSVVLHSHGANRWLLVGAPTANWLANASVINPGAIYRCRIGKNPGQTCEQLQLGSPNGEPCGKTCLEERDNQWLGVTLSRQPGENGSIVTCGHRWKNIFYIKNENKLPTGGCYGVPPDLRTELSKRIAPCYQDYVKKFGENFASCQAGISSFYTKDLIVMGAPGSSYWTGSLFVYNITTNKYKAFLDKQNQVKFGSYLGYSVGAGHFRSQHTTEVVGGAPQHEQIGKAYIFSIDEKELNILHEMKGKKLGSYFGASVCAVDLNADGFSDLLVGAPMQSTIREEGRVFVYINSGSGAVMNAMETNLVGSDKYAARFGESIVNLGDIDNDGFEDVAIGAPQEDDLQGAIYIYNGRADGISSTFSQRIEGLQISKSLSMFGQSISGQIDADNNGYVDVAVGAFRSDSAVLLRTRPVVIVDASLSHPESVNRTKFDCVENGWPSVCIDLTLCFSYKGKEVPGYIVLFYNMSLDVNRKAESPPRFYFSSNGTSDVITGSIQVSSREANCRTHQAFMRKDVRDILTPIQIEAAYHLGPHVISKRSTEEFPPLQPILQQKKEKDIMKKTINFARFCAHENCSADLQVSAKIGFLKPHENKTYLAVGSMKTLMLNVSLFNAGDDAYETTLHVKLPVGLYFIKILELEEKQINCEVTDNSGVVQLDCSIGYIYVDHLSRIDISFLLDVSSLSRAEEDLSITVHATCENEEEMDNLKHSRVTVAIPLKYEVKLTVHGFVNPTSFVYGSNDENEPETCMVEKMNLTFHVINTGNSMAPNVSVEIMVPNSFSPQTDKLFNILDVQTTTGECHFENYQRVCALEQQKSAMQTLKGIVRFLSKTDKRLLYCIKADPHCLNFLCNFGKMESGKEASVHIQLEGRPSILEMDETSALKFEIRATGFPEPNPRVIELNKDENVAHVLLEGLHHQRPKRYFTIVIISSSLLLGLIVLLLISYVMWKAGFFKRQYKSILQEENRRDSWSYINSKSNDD
T1 sequence (P26010 20-798): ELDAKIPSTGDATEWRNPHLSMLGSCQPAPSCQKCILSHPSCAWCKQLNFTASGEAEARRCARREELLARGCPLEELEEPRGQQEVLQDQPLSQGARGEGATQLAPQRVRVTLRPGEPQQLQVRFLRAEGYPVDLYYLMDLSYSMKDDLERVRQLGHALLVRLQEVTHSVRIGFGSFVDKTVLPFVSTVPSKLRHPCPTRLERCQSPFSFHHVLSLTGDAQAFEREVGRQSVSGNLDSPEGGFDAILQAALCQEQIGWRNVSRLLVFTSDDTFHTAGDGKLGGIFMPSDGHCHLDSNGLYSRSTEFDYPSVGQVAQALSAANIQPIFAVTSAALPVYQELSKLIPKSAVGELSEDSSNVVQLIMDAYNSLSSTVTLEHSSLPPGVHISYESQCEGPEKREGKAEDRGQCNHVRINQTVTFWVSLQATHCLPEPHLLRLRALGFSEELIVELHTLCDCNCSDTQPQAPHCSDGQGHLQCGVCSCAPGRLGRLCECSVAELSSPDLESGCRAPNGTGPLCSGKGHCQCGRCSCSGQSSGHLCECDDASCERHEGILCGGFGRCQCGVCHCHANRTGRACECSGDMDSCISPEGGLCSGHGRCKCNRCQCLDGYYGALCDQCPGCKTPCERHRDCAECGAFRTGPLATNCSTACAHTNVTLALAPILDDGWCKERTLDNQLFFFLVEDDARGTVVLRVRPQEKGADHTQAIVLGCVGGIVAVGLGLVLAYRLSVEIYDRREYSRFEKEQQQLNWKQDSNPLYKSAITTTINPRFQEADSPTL
Nature of the test: α4β7-MAdCAM Cell Adhesion Assay. As to conditions: read-out: Cell-Adhesion A4B7. Type of test: cell-based. The procedure, abridged: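 RPMI 8866 cells (200,000/well) in DMEM with 1 mM MnCl2 and 0.1% BSA were allowed to adhere 30-45 min at 37° C to plates coated with rh MAdCAM-1/Fc (200 ng/well) in presence of serially diluted peptide. After washing, bound cells quantified by MTT, absorbance 570 nm, cell-free background subtracted.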

Setting [1] is: thioether peptide dimers, Table 7.

Read-outs that look alike come from different tables or passages of the source. *1 amine or outer side, *2 acyl side, *3 side chain or, on linkers, in order; H or OH if unused. Where a SMILES comes first, the peptide text is derived from it. Bridges are numbered along the chain shown (N, C = ends). Roman numbers before positions name the chains, in order. [ ]: non-standard residue; d: D form. Phe(4-CF3) = N[C@@H](Cc1ccc(C(F)(F)F)cc1)C(=O)O; Phe(4-tBu) = CC(C)(C)c1ccc(C[C@H](N)C(=O)O)cc1; 1Nal = N[C@@H](Cc1cccc2ccccc12)C(=O)O; Diglycolyl = O=C(COCC(=O)[*:2])[*:1]; NMeR = CN[C@@H](CCCNC(=N)N)C(=O)O; Tic = O=C(O)[C@@H]1Cc2ccccc2CN1; β3hE = N[C@@H](CCC(=O)O)CC(=O)O; X1 = O=C(c1ccccc1C[*:2])[*:1]; Pen = CC(C)(S)[C@H](N)C(=O)O; hCys = N[C@@H](CCS)C(=O)O

For `CC(C)C[C@@H]1NC(=O)[C@H]([C@@H](C)O)NC(=O)[C@H](CC(=O)O)NC(=O)[C@H](CO)NC(=O)[C@H](CCCNC(=N)N)N(C)C(=O)c2ccccc2CSC(C)(C)[C@@H](C(=O)N[C@@H](Cc2ccc(C(C)(C)C)cc2)C(=O)N[C@@H](CCC(=O)O)CC(N)=O)NC1=O` [compound 134] ([NMeR]SDTL[Pen][Phe(4-tBu)][β3hE]-NH2; linker N-6 via X1), the IC50 (thioether monomer peptides, Table 6) was below 25 nM.

As to `CC(C)C[C@@H]1NC(=O)[C@H]([C@@H](C)O)NC(=O)[C@H](CC(=O)O)NC(=O)[C@H](CO)NC(=O)[C@H](CCCNC(=N)N)N(C)C(=O)CSC[C@@H](C(=O)N[C@@H](Cc2c[nH]c3ccccc23)C(=O)N[C@H](CCCCNC(=O)COCC(=O)NCCCC[C@@H](NC(=O)[C@H](Cc2c[nH]c3ccccc23)NC(=O)[C@@H]2CSCC(=O)N(C)[C@@H](CCCNC(=N)N)C(=O)N[C@@H](CO)C(=O)N[C@@H](CC(=O)O)C(=O)N[C@@H]([C@@H](C)O)C(=O)N[C@@H](CC(C)C)C(=O)N2)C(N)=O)C(N)=O)NC1=O` [compound 143], the IC50 under setting [1] was in the range of 100 to 1000 nM.

Turning to `CC(C)C[C@@H]1NC(=O)[C@H]([C@@H](C)O)NC(=O)[C@H](CC(=O)O)NC(=O)[C@H](CO)NC(=O)[C@H](CCCNC(=N)N)N(C)C(=O)c2ccccc2CSC[C@H](C(=O)N[C@@H](Cc2c[nH]c3ccccc23)C(=O)N[C@@H](CCC(=O)O)CC(=O)N[C@H](CCCCNC(=O)COCC(=O)NCCCC[C@@H](NC(=O)C[C@H](CCC(=O)O)NC(=O)[C@H](Cc2c[nH]c3ccccc23)NC(=O)[C@H]2CSCc3ccccc3C(=O)N(C)[C@@H](CCCNC(=N)N)C(=O)N[C@@H](CO)C(=O)N[C@@H](CC(=O)O)C(=O)N[C@@H]([C@@H](C)O)C(=O)N[C@@H](CC(C)C)C(=O)N2)C(N)=O)C(N)=O)NC1=O` [compound 156] (I: [NMeR]SDTL[dC]W[β3hE][dK]-NH2 / II: [NMeR]SDTL[dC]W[β3hE][dK]-NH2; linker I:9-II:9 via Diglycolyl; linker I:N-I:6, II:N-II:6 via X1), the IC50 under setting [1] lay in the range of 25 to 100 nM.

On to `CC(C)C[C@@H]1NC(=O)[C@H]([C@@H](C)O)NC(=O)[C@H](CC(=O)O)NC(=O)[C@H](CO)NC(=O)[C@H](CCCNC(=N)N)N(C)C(=O)c2ccccc2CSCC[C@@H](C(=O)N[C@@H](Cc2c[nH]c3ccccc23)C(=O)N[C@@H](CCC(=O)O)C(=O)N[C@H](CCCCNC(=O)COCC(=O)NCCCC[C@@H](NC(=O)[C@H](CCC(=O)O)NC(=O)[C@H](Cc2c[nH]c3ccccc23)NC(=O)[C@@H]2CCSCc3ccccc3C(=O)N(C)[C@@H](CCCNC(=N)N)C(=O)N[C@@H](CO)C(=O)N[C@@H](CC(=O)O)C(=O)N[C@@H]([C@@H](C)O)C(=O)N[C@@H](CC(C)C)C(=O)N2)C(N)=O)C(N)=O)NC1=O` [compound 157] (I: [NMeR]SDTL[hCys]WE[dK]-NH2 / II: [NMeR]SDTL[hCys]WE[dK]-NH2; linker I:9-II:9 via Diglycolyl; linker I:N-I:6, II:N-II:6 via X1), for which, under setting [1], the IC50 is 25 to 100 nM.

For the compound `CC(C)C[C@@H]1NC(=O)[C@H]([C@@H](C)O)NC(=O)[C@H](CC(=O)O)NC(=O)[C@H](CO)NC(=O)[C@H](CCCNC(=N)N)N(C)C(=O)c2ccccc2CSC(C)(C)[C@@H](C(=O)N[C@@H](Cc2cccc3ccccc23)C(=O)N[C@H](CCC(=O)O)C(=O)N[C@H](CCCCNC(=O)COCC(=O)NCCCC[C@@H](NC(=O)[C@@H](CCC(=O)O)NC(=O)[C@H](Cc2cccc3ccccc23)NC(=O)[C@H]2NC(=O)[C@H](CC(C)C)NC(=O)[C@H]([C@@H](C)O)NC(=O)[C@H](CC(=O)O)NC(=O)[C@H](CO)NC(=O)[C@H](CCCNC(=N)N)N(C)C(=O)c3ccccc3CSC2(C)C)C(N)=O)C(N)=O)NC1=O` [compound 158] (I: [NMeR]SDTL[Pen][1Nal][dE][dK]-NH2 / II: [NMeR]SDTL[Pen][1Nal][dE][dK]-NH2; linker I:9-II:9 via Diglycolyl; linker I:N-I:6, II:N-II:6 via X1), the IC50 under setting [1] is below 25 nM.

For `CC(C)C[C@@H]1NC(=O)[C@H]([C@@H](C)O)NC(=O)[C@H](CC(=O)O)NC(=O)[C@H](CO)NC(=O)[C@H](CCCNC(=N)N)N(C)C(=O)c2ccccc2CSC(C)(C)[C@@H](C(=O)N[C@@H](Cc2ccc(C(F)(F)F)cc2)C(=O)N[C@@H](CCC(=O)O)C(=O)N[C@H](CCCCNC(=O)COCC(=O)NCCCC[C@@H](NC(=O)[C@H](CCC(=O)O)NC(=O)[C@H](Cc2ccc(C(F)(F)F)cc2)NC(=O)[C@H]2NC(=O)[C@H](CC(C)C)NC(=O)[C@H]([C@@H](C)O)NC(=O)[C@H](CC(=O)O)NC(=O)[C@H](CO)NC(=O)[C@H](CCCNC(=N)N)N(C)C(=O)c3ccccc3CSC2(C)C)C(N)=O)C(N)=O)NC1=O` [compound 166] (I: [NMeR]SDTL[Pen][Phe(4-CF3)]E[dK]-NH2 / II: [NMeR]SDTL[Pen][Phe(4-CF3)]E[dK]-NH2; linker I:9-II:9 via Diglycolyl; linker I:N-I:6, II:N-II:6 via X1), under setting [1], the IC50 was below 25 nM.

`CC(C)C[C@@H]1NC(=O)[C@H]([C@@H](C)O)NC(=O)[C@H](CC(=O)O)NC(=O)[C@H](CO)NC(=O)[C@H](CCCNC(=N)N)N(C)C(=O)c2ccccc2CSC(C)(C)[C@@H](C(=O)N[C@@H](Cc2cccc3ccccc23)C(=O)N[C@@H](CCC(=O)O)C(=O)N[C@H](CCCCNC(=O)COCC(=O)NCCCC[C@@H](NC(=O)[C@H](CCC(=O)O)NC(=O)[C@H](Cc2cccc3ccccc23)NC(=O)[C@H]2NC(=O)[C@H](CC(C)C)NC(=O)[C@H]([C@@H](C)O)NC(=O)[C@H](CC(=O)O)NC(=O)[C@H](CO)NC(=O)[C@H](CCCNC(=N)N)N(C)C(=O)c3ccccc3CSC2(C)C)C(N)=O)C(N)=O)NC1=O` [compound 167] (I: [NMeR]SDTL[Pen][1Nal]E[dK]-NH2 / II: [NMeR]SDTL[Pen][1Nal]E[dK]-NH2; linker I:9-II:9 via Diglycolyl; linker I:N-I:6, II:N-II:6 via X1): under setting [1], the IC50 is below 25 nM.

Take `CC(C)C[C@@H]1NC(=O)[C@H]([C@@H](C)O)NC(=O)[C@H](CC(=O)O)NC(=O)[C@H](CO)NC(=O)[C@H](CCCNC(=N)N)N(C)C(=O)c2ccccc2CSC(C)(C)[C@@H](C(=O)N[C@@H](Cc2ccc(-c3ccccc3)cc2)C(=O)N[C@H](CCC(=O)O)C(=O)N[C@H](CCCCN)C(N)=O)NC1=O` [compound 178] (HELM PEPTIDE1{[meR].S.D.T.L.[Pen].[O=C([C@H](Cc1ccc(-c2ccccc2)cc1)N[*:1])[*:2]].[dE].[dK].[am]}|CHEM1{[O=C(c1ccccc1C[*:2])[*:1]]}$PEPTIDE1,CHEM1,1:R1-1:R1|PEPTIDE1,CHEM1,6:R3-1:R2$$$V2.0): the IC50 under setting [1] was below 25 nM.

Consider `CC(C)C[C@@H]1NC(=O)[C@H]([C@@H](C)O)NC(=O)[C@H](CC(=O)O)NC(=O)[C@H](CO)NC(=O)[C@H](CCCNC(=N)N)N(C)C(=O)c2ccccc2CSC[C@@H](C(=O)N2Cc3ccccc3C[C@H]2C(=O)N[C@H](CCC(=O)O)C(=O)N[C@H](CCCCNC(=O)COCC(=O)NCCCC[C@@H](NC(=O)[C@@H](CCC(=O)O)NC(=O)[C@@H]2Cc3ccccc3CN2C(=O)[C@@H]2CSCc3ccccc3C(=O)N(C)[C@@H](CCCNC(=N)N)C(=O)N[C@@H](CO)C(=O)N[C@@H](CC(=O)O)C(=O)N[C@@H]([C@@H](C)O)C(=O)N[C@@H](CC(C)C)C(=O)N2)C(N)=O)C(N)=O)NC1=O` [compound 184] (I: [NMeR]SDTLC[Tic][dE][dK]-NH2 / II: [NMeR]SDTLC[Tic][dE][dK]-NH2; linker I:9-II:9 via Diglycolyl; linker I:N-I:6, II:N-II:6 via X1), for which the IC50 under setting [1] was below 25 nM.
